According to paper PMC11873239, “A covalent chemical probe for Chikungunya nsP2 cysteine protease with antialphaviral activity and proteome-wide selectivity” (Scientific Reports, 2025):
Where “and” joins values, the source holds several entries; their conditions need not be identical. Equal values may be shown once.

What was measured:
Assay type in all cases: binding
[1] = biological target: HEK293 cell lysate proteins (Homo sapiens, UniProt O75342)
[2] = biological target: HEK293 cell lysate proteins (Homo sapiens, UniProt P04406)
[3] = biological target: HEK293 cell lysate proteins (Homo sapiens, UniProt P05089)
[4] = biological target: HEK293 cell lysate proteins (Homo sapiens, UniProt Q86VP6)
[5] = biological target: HEK293 cell lysate proteins (Homo sapiens, UniProt P07339)
[6] = biological target: HEK293 cell lysate proteins (Homo sapiens, UniProt Q01469)
[7] = biological target: HEK293 cell lysate proteins (Homo sapiens, UniProt Q5T749)
[8] = biological target: HEK293 cell lysate proteins (Homo sapiens, UniProt P04264)
[9] = biological target: HEK293 cell lysate proteins (Homo sapiens, UniProt P42357)
[10] = biological target: HEK293 cell lysate proteins (Homo sapiens, UniProt P14923)
[11] = biological target: HEK293 cell lysate proteins (Homo sapiens, UniProt P31944)
[12] = biological target: HEK293 cell lysate proteins (Homo sapiens, UniProt A8K2U0)
[13] = biological target: HEK293 cell lysate proteins (Homo sapiens, UniProt P22735)
[14] = biological target: HEK293 cell lysate proteins (Homo sapiens, UniProt P0DOX5)
[15] = biological target: HEK293 cell lysate proteins (Homo sapiens, UniProt P27708)
[16] = biological target: HEK293 cell lysate proteins (Homo sapiens, UniProt P61626)
[17] = biological target: HEK293 cell lysate proteins (Homo sapiens, UniProt P07355)
[18] = biological target: HEK293 cell lysate proteins (Homo sapiens, UniProt P11142)
[19] = biological target: HEK293 cell lysate proteins (Homo sapiens, UniProt P11586)
[20] = biological target: HEK293 cell lysate proteins (Homo sapiens, UniProt Q15517)
[21] = biological target: HEK293 cell lysate proteins (Homo sapiens, UniProt Q8WVV4)
[22] = biological target: HEK293 cell lysate proteins (Homo sapiens, UniProt Q03164)
[23] = biological target: HEK293 cell lysate proteins (Homo sapiens, UniProt P23490)
[24] = biological target: HEK293 cell lysate proteins and CHIKV nsP2 (Homo sapiens, UniProt Q9UHB7)
[25] = biological target: HEK293 cell lysate proteins and CHIKV nsP2 (Homo sapiens, UniProt P31151)
[26] = biological target: HEK293 cell lysate proteins and CHIKV nsP2 (Homo sapiens, UniProt Q8NE71)
[27] = biological target: HEK293 cell lysate proteins and CHIKV nsP2 (Homo sapiens, UniProt Q13428)
[28] = biological target: HEK293 cell lysate proteins and CHIKV nsP2 (Homo sapiens, UniProt Q14241)
[29] = biological target: HEK293 cell lysate proteins and CHIKV nsP2 (Homo sapiens, UniProt P04406)
[30] = biological target: HEK293 cell lysate proteins and CHIKV nsP2 (Homo sapiens, UniProt P21127)
[31] = biological target: HEK293 cell lysate proteins and CHIKV nsP2 (Homo sapiens, UniProt Q9NWH9)
[32] = biological target: HEK293 cell lysate proteins and CHIKV nsP2 (Homo sapiens, UniProt P07339)
[33] = biological target: HEK293 cell lysate proteins and CHIKV nsP2 (Homo sapiens, UniProt Q08554)
[34] = biological target: HEK293 cell lysate proteins and CHIKV nsP2 (Homo sapiens, UniProt Q02413)
[35] = biological target: HEK293 cell lysate proteins and CHIKV nsP2 (Homo sapiens, UniProt O75223)
[36] = biological target: HEK293 cell lysate proteins and CHIKV nsP2 (Homo sapiens, UniProt P04040)
[37] = biological target: HEK293 cell lysate proteins and CHIKV nsP2 (Homo sapiens, UniProt Q9BQG0)
[38] = biological target: HEK293 cell lysate proteins and CHIKV nsP2 (Homo sapiens, UniProt P26368)
[39] = biological target: HEK293 cell lysate proteins and CHIKV nsP2 (Homo sapiens, UniProt Q5T750)
Chain of HEK293 cell lysate proteins and CHIKV nsP2 (Homo sapiens, UniProt Q5T750) (Q5T750 whole entry): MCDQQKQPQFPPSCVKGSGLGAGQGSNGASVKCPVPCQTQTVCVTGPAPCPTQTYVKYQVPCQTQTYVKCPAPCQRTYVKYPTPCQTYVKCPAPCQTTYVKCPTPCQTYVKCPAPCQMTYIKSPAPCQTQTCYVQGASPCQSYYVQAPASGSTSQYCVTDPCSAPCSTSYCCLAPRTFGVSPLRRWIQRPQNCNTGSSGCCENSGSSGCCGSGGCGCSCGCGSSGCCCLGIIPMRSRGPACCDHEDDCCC

Chain of HEK293 cell lysate proteins and CHIKV nsP2 (Homo sapiens, UniProt Q13428) (Q13428 whole entry): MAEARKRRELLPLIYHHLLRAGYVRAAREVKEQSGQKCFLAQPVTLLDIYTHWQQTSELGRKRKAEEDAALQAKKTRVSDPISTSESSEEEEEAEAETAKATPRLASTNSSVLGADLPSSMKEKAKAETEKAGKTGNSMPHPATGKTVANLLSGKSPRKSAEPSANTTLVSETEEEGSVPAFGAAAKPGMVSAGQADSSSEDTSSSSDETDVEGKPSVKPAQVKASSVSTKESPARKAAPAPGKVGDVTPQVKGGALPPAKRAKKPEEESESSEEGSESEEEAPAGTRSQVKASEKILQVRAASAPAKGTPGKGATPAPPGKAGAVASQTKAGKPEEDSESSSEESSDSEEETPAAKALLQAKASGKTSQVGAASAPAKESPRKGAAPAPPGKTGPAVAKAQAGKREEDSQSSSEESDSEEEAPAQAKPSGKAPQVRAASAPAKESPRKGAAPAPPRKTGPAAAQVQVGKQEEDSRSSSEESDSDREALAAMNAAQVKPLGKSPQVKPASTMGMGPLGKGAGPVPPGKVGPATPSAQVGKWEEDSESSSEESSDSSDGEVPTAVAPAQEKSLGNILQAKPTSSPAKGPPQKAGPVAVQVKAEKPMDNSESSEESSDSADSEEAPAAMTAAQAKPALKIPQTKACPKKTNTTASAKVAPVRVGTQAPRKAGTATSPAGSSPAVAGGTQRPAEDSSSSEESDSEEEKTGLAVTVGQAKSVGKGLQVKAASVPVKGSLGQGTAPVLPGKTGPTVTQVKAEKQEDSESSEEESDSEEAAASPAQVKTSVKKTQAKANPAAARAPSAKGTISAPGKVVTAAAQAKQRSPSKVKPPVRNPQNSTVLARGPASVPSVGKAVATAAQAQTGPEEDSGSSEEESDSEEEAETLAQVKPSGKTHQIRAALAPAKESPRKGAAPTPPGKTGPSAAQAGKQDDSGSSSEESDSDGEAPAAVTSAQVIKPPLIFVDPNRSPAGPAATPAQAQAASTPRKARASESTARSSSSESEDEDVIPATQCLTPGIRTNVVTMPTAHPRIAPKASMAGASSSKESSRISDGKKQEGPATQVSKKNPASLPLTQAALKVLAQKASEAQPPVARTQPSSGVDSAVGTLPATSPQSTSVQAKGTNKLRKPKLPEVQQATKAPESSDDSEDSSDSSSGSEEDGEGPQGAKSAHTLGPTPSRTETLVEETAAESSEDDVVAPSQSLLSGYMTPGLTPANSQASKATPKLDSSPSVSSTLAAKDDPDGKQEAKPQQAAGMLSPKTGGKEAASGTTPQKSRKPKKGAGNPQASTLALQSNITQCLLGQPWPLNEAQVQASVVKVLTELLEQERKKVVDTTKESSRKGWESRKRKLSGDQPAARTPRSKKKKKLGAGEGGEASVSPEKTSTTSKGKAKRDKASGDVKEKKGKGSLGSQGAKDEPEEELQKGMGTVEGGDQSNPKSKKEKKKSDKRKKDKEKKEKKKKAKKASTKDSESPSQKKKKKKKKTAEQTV
Chain of HEK293 cell lysate proteins (Homo sapiens, UniProt P04264) (P04264 whole entry): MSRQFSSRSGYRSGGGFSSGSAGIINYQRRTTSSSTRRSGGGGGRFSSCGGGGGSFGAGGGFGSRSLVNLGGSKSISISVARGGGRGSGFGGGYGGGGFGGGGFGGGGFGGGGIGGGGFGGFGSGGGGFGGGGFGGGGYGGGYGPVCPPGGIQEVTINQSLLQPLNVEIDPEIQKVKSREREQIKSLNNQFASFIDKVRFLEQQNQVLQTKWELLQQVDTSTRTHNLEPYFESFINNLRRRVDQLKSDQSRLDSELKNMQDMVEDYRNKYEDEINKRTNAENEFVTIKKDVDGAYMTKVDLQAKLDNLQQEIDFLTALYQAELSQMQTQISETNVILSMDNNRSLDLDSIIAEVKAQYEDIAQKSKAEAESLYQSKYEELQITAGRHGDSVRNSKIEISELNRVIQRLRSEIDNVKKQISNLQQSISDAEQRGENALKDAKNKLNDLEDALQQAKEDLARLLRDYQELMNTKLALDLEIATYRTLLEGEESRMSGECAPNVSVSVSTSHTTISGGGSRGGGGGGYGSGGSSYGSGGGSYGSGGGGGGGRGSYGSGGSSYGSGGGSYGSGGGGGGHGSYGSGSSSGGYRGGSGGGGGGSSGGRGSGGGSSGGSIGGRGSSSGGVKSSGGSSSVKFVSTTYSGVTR
Chain of HEK293 cell lysate proteins and CHIKV nsP2 (Homo sapiens, UniProt P21127) (P21127 whole entry): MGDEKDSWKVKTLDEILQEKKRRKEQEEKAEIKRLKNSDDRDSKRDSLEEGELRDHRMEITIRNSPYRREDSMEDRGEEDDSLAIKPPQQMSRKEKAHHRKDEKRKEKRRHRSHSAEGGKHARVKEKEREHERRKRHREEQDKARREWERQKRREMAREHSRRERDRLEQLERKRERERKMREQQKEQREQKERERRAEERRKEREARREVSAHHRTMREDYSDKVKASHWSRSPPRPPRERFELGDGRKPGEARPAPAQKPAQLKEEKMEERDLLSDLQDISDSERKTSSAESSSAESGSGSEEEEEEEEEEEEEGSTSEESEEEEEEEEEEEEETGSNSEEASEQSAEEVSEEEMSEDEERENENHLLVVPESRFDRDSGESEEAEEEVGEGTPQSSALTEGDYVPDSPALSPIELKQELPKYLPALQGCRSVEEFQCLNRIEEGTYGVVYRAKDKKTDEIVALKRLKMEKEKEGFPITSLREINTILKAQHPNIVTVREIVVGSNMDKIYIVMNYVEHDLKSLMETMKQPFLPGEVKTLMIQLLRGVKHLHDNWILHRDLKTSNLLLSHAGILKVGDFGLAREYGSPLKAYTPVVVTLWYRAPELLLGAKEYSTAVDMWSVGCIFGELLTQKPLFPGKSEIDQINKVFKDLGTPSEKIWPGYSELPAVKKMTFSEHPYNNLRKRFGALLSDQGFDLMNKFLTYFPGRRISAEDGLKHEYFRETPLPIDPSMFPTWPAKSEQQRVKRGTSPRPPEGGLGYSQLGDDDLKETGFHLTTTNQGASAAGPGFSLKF
Chain of HEK293 cell lysate proteins and CHIKV nsP2 (Homo sapiens, UniProt Q9NWH9) (Q9NWH9 whole entry, looked up): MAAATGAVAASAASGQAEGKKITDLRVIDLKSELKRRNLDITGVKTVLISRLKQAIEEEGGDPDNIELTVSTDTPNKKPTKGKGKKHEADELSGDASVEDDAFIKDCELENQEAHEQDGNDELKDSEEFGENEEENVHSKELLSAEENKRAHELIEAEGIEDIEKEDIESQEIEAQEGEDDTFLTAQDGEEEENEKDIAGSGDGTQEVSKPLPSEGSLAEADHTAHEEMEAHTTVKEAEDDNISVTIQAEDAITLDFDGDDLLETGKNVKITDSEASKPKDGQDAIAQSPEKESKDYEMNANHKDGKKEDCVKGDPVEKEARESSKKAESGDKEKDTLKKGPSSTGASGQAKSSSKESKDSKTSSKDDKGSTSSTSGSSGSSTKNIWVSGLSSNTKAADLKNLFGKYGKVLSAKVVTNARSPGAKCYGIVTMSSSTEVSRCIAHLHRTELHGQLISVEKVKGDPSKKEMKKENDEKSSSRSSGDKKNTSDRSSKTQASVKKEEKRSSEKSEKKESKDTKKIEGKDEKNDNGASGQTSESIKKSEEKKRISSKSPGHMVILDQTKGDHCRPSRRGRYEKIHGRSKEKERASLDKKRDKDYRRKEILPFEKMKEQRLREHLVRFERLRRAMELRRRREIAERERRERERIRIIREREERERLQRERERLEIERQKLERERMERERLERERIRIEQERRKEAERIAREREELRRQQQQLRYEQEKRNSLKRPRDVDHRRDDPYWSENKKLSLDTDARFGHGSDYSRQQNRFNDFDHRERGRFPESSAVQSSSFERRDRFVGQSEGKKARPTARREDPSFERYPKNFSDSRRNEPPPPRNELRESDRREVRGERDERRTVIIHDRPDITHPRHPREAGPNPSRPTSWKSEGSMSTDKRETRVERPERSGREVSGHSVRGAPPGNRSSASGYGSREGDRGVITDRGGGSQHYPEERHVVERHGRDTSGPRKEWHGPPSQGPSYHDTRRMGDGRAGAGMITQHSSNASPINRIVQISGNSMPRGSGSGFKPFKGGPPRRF
Chain of HEK293 cell lysate proteins (Homo sapiens, UniProt P42357) (P42357 whole entry): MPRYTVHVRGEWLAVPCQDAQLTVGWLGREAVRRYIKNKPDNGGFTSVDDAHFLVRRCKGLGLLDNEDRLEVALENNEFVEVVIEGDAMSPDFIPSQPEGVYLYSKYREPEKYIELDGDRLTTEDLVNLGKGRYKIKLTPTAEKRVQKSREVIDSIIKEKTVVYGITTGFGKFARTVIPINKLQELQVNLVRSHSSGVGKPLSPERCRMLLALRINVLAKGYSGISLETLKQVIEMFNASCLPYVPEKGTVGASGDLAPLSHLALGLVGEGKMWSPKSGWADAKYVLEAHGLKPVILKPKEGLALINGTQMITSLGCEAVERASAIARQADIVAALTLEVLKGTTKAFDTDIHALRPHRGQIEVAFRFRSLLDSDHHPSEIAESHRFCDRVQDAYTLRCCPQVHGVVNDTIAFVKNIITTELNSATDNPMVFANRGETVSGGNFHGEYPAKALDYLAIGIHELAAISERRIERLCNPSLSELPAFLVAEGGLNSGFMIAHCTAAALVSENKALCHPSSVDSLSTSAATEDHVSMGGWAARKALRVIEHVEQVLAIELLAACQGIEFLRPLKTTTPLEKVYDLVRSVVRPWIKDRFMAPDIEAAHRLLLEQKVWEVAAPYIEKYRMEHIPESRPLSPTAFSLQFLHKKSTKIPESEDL
Chain of HEK293 cell lysate proteins (Homo sapiens, UniProt Q01469) (Q01469 whole entry, looked up): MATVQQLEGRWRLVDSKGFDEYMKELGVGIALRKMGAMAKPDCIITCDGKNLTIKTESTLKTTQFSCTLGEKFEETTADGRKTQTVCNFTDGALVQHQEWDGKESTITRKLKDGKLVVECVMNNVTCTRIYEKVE

For `C#CCOc1ccccc1-c1cc(C(=O)NC/C=C/S(C)(=O)=O)on1` [VS, (E)-N-(3-(methylsulfonyl)allyl)−3-(2-(prop-2-yn-1-yloxy)phenyl)isoxazole-5-carboxamide], the Log2 fold change [1] was 2.14, the Log2 fold change [2] was 1.78 and the Log2 fold change [3] was 1.79. The Log2 fold change [4] was -1.19, the Log2 fold change [5] was 1.67 and the Log2 fold change [6] was 2.38. The Log2 fold change [7] was 2.53, the Log2 fold change [8] was 1.49 and the Log2 fold change [9] was 1.12. For the same compound, the Log2 fold change [10] was 1.97, the Log2 fold change [11] was 1.29 and the Log2 fold change [12] was 1.10. For the same compound, the Log2 fold change [13] was 1.60, the Log2 fold change [14] was 1.84 and the Log2 fold change [15] was 3.73. For the same compound, the Log2 fold change [16] was 1.36, the Log2 fold change [17] was 1.52 and the Log2 fold change [18] was 1.15. It also gave a Log2 fold change [19] of -1.66, a Log2 fold change [20] of 1.22 and a Log2 fold change [21] of 5.21. It also gave a Log2 fold change [22] of -1.44, a Log2 fold change [23] of 2.79 and a Log2 fold change [24] of -0.42. The Log2 fold change [25] was -1.22, the Log2 fold change [26] was -0.92 and the Log2 fold change [27] was 1.02 and 1.32. For the same compound, the Log2 fold change [28] was -1.01, the Log2 fold change [29] was 1.78 and the Log2 fold change [30] was 0.12. It also gave a Log2 fold change [31] of -0.40, a Log2 fold change [32] of 1.67 and a Log2 fold change [33] of 0.93. It also gave a Log2 fold change [34] of 1.36, a Log2 fold change [35] of 0.96 and a Log2 fold change [36] of 1.41. The Log2 fold change [37] was -0.66, the Log2 fold change [38] was -0.62 and the Log2 fold change [39] was 2.49.
